What follows are compounds tested against Adenylate cyclase type 5 (Rattus norvegicus, UniProt Q04400) (assay: Compound was evaluated for inhibition of adenylate cyclase from rat brain).
Assay type: tissue-based

Sequence of Adenylate cyclase type 5 (Q04400 whole entry): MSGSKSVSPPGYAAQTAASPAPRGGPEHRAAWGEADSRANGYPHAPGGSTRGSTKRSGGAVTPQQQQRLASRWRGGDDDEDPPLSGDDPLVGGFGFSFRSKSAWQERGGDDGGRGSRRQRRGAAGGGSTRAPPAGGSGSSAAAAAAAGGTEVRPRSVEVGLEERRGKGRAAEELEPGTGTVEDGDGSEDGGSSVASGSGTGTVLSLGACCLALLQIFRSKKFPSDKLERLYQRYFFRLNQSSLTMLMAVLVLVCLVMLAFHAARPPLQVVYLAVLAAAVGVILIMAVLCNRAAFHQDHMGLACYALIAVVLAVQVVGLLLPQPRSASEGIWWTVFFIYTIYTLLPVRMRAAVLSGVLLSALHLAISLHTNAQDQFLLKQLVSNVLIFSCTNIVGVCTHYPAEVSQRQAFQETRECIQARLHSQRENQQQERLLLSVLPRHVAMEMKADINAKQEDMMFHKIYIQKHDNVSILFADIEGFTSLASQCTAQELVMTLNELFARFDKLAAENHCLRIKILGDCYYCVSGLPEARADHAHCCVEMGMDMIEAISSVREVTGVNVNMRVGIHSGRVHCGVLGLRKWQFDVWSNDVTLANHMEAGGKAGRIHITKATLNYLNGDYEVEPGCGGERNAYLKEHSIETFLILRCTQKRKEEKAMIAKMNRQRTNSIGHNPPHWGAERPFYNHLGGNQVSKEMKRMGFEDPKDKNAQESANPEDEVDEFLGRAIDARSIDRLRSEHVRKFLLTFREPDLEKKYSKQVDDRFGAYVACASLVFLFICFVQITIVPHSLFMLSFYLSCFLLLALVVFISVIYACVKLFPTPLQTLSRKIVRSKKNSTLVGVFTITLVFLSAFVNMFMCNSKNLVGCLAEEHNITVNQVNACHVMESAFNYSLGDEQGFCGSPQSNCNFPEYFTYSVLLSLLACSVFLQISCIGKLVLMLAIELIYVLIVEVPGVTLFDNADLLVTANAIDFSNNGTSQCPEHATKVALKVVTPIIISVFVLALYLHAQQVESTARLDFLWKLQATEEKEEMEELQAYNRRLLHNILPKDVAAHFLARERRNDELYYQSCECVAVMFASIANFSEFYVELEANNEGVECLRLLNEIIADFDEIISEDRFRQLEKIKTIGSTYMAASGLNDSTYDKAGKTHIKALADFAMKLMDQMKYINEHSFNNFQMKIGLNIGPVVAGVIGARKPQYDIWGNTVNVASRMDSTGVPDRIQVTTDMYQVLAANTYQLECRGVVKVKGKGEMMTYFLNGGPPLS

Structure (SMILES)	IC50
C[C@@H]1O[C@H](n2cnc3c(N)ncnc32)C[C@H]1O	2.8 µM
Nc1nc(F)nc2c1ncn2[C@H]1C[C@H](O)[C@@H](CO)O1 (stereo in doubt; form 1)	4.6 µM
C[C@H]1O[C@@H](n2cnc3c(N)nc(F)nc32)C[C@@H]1O (stereo in doubt; form 1)	> 100 µM
Nc1nc(F)nc2c1ncn2[C@H]1C[C@H](O)[C@@H](CF)O1 (stereo in doubt; form 1)	29 µM
Nc1nc(F)nc2c1ncn2[C@H]1C[C@H](O)[C@@H](CO)O1 (stereo in doubt; form 2)	> 100 µM
C[C@H]1O[C@@H](n2cnc3c(N)nc(F)nc32)C[C@@H]1O (stereo in doubt; form 2)	0.89 µM
Nc1nc(F)nc2c1ncn2[C@H]1C[C@H](O)[C@@H](CF)O1 (stereo in doubt; form 2)	0.98 µM
Nc1ncnc2c1ncn2[C@@H]1O[C@H](CO)[C@@H](O)[C@H]1O [ADENOSINE]	> 300 µM
Nc1ncnc2c1ncn2[C@H]1C[C@H](O)[C@@H](CO)O1 [DEOXYADENOSINE]	15 µM
Nc1ncnc2c1ncn2[C@@H]1O[C@H](CO)[C@@H](O)[C@@H]1O [VIDARABINE]	82 µM
